Experimental data taken from patent publication US6013642A, “Use of estrone derivatives as steroid sulphatase inhibitors” (priority 1994, dated 2000).

Tests used:
[1] = target: T1, human placental microsomal DHEAS sulphatase (Homo sapiens, UniProt P08842); test: Human placental microsomal steroid sulphatase assay; type: biochemical
T1 construct: Human placental microsomes prepared as described in; from tissue; host or cells: human placenta, microsomes (prepared as Santner et al 1984)
T1 sequence (P08842 22-583): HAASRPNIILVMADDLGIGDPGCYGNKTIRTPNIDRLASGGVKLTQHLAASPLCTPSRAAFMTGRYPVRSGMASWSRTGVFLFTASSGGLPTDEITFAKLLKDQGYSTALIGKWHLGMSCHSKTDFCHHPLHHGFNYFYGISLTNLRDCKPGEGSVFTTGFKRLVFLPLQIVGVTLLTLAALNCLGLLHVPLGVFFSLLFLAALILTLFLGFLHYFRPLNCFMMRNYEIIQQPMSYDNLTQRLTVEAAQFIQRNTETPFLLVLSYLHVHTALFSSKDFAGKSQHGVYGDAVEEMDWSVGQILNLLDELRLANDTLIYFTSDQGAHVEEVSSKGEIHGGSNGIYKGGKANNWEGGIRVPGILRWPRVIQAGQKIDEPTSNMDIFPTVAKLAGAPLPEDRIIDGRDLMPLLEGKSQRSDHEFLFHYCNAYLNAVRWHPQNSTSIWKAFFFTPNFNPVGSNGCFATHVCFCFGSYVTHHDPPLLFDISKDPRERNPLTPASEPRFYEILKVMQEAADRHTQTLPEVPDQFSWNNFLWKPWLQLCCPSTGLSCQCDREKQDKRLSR
Protocol: a) Human placental microsomal steroid sulphatase
ENZYME: Human placental microsomes prepared as described in (Santner, S. J., et al (1984) J. Clin. Endocrinol. Metab. 59 29).
ASSAY: All assays were carried out in (at least) duplicate. The reaction mixture consisted of either PBS+250 mM sucrose (placental microsomes), containing 1 μmol/1 DHEAS [concentration chosen because approx. […]] with 0.05% (v/v) [^3 H] substrate and 0.05% (v/v) [^14 C] DHEA) in 0.5% (v/v DMSO. The reaction was initiated by addition of appropriately diluted) such that 10% substrate conversion occurred during the assay) enzyme and incubated for 30 min at 30° C. Reactions were stopped by addition of 1000 μl toluene to the reaction mixture, vortexed (2*40 sec on max setting of multitube vortexer), then allow to settle for 5 min. 500 μl top (solvent) layer removed to scintillation vial. add 10 ml scintillation fluid (Ultima Gold XR) then counted for radioactivity on a scintillation counter. As controls, enzyme was excluded from some reaction mixtures and 50% solvent and aqueous layers removed and counted for radioactivity in order to determine background (in solvent layer) and total (in aqueous layer) [^3 H]. [^14 C] DHEA is included to enable back correction to allow for product (DHEA) recovery (normally >98%). […]

[2] = test system: mouse delayed type hypersensitivity model; test: Delayed type hypersensitivity (SRBC, footpad swelling) in the mouse; type: in vivo; conditions: FIG. 11, 24 h post challenge
Protocol: 2. Delayed Type Hypersensitivity (DTH)
On day 0, animals were injected intravenously with 10^6 washed SRBC in 0.1 ml saline. Four days later animals were challenged in the right hind footpad with 10^6 washed SRBC in 50 μl saline. Footpad thickness is measured prior to challenge, 24, 48 and 72 hours post challenge using calipers. Footpad swelling is determined as the difference in thickness prior and post challenge. The data are expressed as percentage change from the vehicle treated groups given sensitisation and challenge.
Animals were randomised into 10 groups (n=7-8) and steroids given on day 0 and 4.
Steroids were given on day 0 and 3 subcutaneously. Response at 24 h post challenge. Results given as mean±sem. $, *p<0.05 ANOVA.

Compound: C[C@]12CC[C@@H]3c4ccc(OS(N)(=O)=O)cc4CC[C@H]3[C@@H]1CCC2=O [CT 2251, Estrone 3-0-sulphamate]
- IC50 [1]: 5 nM
- foot swelling response, inhibitor on its own ([2]; CT2251 0.1 and 10 mg/kg s.c.): can markedly reduce the foot swelling response
- effect on DHEAS-mediated augmentation of foot swelling ([2]; CT2251 0.1 and 10 mg/kg with DHEAS 5 mg/kg s.c.): can effectively reverse the DHEAS-mediated augmentation
